# Target: human recombinant LSD1 protein (Homo sapiens (Human), UniProt O60341)
# Test: In vitro enzyme inhibition activity assay - LSD1 (Lance Ultra TR-FRET)
# Assay type: biochemical
# Conditions: all compounds tested in the form of hydrochloride
# Method: The purpose of this experiment was to test the in vitro inhibitory activity of the compounds against LSD1. The human recombinant LSD1 protein used in the experiment was purchased from Active Motif, and the enzyme level activity testing assay of LSD1 was performed using the Lance Ultra LSD1 Histone H3 Lysine 4 Demethylase Assay Kit (PerkinElmer). Tris-buffer (50 mMTris-HCl, 50 mMNaCl, 0.01% Tween-20, 1 mM DTT, 10 μM FAD, 10% glycerol, pH 9.0) was first prepared, and after preparation, the LSD1 fractions required for test were placed in this buffer and incubated for one hour at room temperature; the fractions included 4 μL of substrate solution ([…] Bio-H3K4me2, 1-24aa), 4 μL of enzyme solution (4 nM LSD1), and 2 μL of inhibitor in a 384-well microplate. After these operations, another 5 μL of assay mixture containing Eu-labeled H3K4me0 antibody and ULight-Streptavidin anti-biotin protein was added to the system, after which the fluorescence intensity of the components to be tested was detected by using Envision (PerkinElmer) in TR-FRET mode (excitation wavelength of 320 nm, emission wavelength of 620 nm). The test was repeated a total of three times to minimize errors. The final IC50 data were calculated by the software GraphPad Prism 5, and finally the sigmoidal dose-response (variable slope) method was used to obtain the fitted curve.
# The LSD1 inhibitory activities of representative compounds of the present application as well as the positive control compound CC90011 were provided in Table 2. All compounds were tested in the form of hydrochloride.
row,SMILES,IC50
1,N#Cc1ccc(-c2nc(NC[C@H]3CCNC3)nc3ccc(-c4c(F)ccc(O)c4F)cc23)cc1F [Compound 60],30 to 300 nM
2,"N#Cc1ccc(-c2nc(N3CCC(N)CC3)nc3ccc(-c4ccccc4F)cc23)cc1F [Compound 15, 4-(2-(4-aminopiperidin-1-yl)-6-(2-fluorophenyl)quinazolin-4-yl)-2-fluorobenzonitrile]",30 to 300 nM
3,"N#Cc1ccc(-c2nc(N3CCC(N)CC3)nc3ccc(-c4c(F)cccc4Cl)cc23)cc1F [Compound 22, 4-(2-(4-Aminopiperidin-1-yl)-6-(2-chloro-6-fluorophenyl)quinazolin-4-yl)-2-fluorobenzonitrile]",≤ 30 nM
4,"Cn1ncc2cc(-c3ccc4nc(N5CCC(N)CC5)nc(-c5ccc(C#N)c(F)c5)c4c3)ccc21 [Compound 9, 4-(2-(4-aminopiperidin-1-yl)-6-(1-methyl-1H-indazol-5-yl)quinazolin-4-yl)-2-fluorobenzonitrile]",30 to 300 nM
5,"N#Cc1ccc(-c2nc(NC[C@H]3CCNC3)nc3ccc(-c4cccc(O)c4F)cc23)cc1F [Compound 61, (S)-2-fluoro-4-(6-(2-fluoro-3-hydroxyphenyl)-2-((pyrrolidin-3-ylmethyl)amino)quinazolin-4-yl)benzonitrile]",30 to 300 nM
6,"CC1(C)CN(c2nc(-c3ccc(C#N)c(F)c3)c3cc(-c4c(F)cccc4C(F)(F)F)ccc3n2)CCC1N (centres unmarked) [Compound 71, 4-(2-(4-amino-3,3-dimethylpiperidin-1-yl)-6-(2-fluoro-6-(trifluoromethyl)phenyl)quinazolin-4-yl)-2-fluorobenzonitrile]",≤ 30 nM
7,"N#Cc1ccc(-c2nc(N3CCCC[C@@H](N)C3)nc3ccc(-c4c(F)cccc4C(F)(F)F)cc23)cc1F [Compound 87, (R)-4-(2-(3-aminoazepan-1-yl)-6-(2-fluoro-6-(trifluoromethyl)phenyl)quinazolin-4-yl)-2-fluorobenzonitrile]",≤ 30 nM
8,"N#Cc1ccc(-c2nc(N3CCC4(CCCN4)CC3)nc3ccc(-c4c(F)cccc4C(F)(F)F)cc23)cc1F [Compound 77, 2-Fluoro-4-(6-(2-fluoro-6-(trifluoromethyl)phenyl)-2-(1,8-diazaspiro[4.5]dec-8-yl)quinazolin-4-yl)benzonitrile]",≤ 30 nM
9,"N#Cc1ccc(-c2nc(NC[C@H]3CCNC3)nc3ccc(-c4ccccc4F)cc23)cc1F [Compound 41, (S)-2-fluoro-4-(2-((pyrrolidin-3-ylmethyl)amino)-6-(2-fluorophenyl)quinazolin-4-yl)-2-fluorobenzonitrile]",30 to 300 nM
10,"Cc1cccc(-c2ccc3nc(NC[C@H]4CCNC4)nc(-c4ccc(C#N)c(F)c4)c3c2)c1C(F)(F)F [Compound 59, (S)-2-fluoro-4-(6-(3-methyl-2-(trifluoromethyl)phenyl)-2-((pyrrolidin-3-ylmethyl)amino)quinazolin-4-yl)benzonitrile]",30 to 300 nM
11,"COc1ccc(-c2ccc3nc(NCC4CCNC4)nc(-c4ccc(C#N)c(F)c4)c3c2)cc1F (centres unmarked) [Compound 29, 2-Fluoro-4-(6-(3-fluoro-4-methoxyphenyl)-2-((pyrrolidin-3-ylmethyl)amino)quinazolin-4-yl)benzonitrile]",30 to 300 nM
12,"Cn1ncc2cccc(N3CCc4nc(N5CCC(N)CC5)nc(-c5ccc(C#N)c(F)c5)c4C3)c21 [Compound 94, 4-(2-(4-aminopiperidin-1-yl)-6-(1-methyl-1H-indazol-7-yl)-5,6,7,8-tetrahydropyrido[4,3-d]pyrimidin-4-yl)-2-fluorobenzonitrile]",30 to 300 nM
13,"N#Cc1ccc(-c2nc(N3CCC4NCCC4C3)nc3ccc(-c4c(F)cccc4C(F)(F)F)cc23)cc1F (centres unmarked) [Compound 76, 2-Fluoro-4-(6-(2-fluoro-6-(trifluoromethyl)phenyl)-2-(octahydro-5H-pyrrolo[3,2-c]pyridin-5-yl)quinazolin-4-yl)benzonitrile]",≤ 30 nM
14,"N#Cc1ccc(-c2nc(N3CCCC(N)C3)nc3ccc(-c4c(F)cccc4C(F)(F)F)cc23)cc1F (centres unmarked) [Compound 70, 4-(2-(3-aminopiperidin-1-yl)-6-(2-fluoro-6-(trifluoromethyl)phenyl)quinazolin-4-yl)-2-fluorobenzonitrile]",≤ 30 nM
15,"N#Cc1ccc(-c2nc(N3CCC(N)CC3)nc3cc(F)c(-c4ccccc4C(F)(F)F)cc23)cc1F [Compound 79, 4-(2-(4-Aminopiperidin-1-yl)-7-fluoro-6-(2-(trifluoromethyl)phenyl)quinazolin-4-yl)-2-fluorobenzonitrile]",30 to 300 nM
16,"N#Cc1ccc(-c2nc(N3CCC[C@@H](N)C3)nc3ccc(-c4c(F)cccc4C(F)(F)F)cc23)cc1F [Compound 74, (R)-4-(2-(3-aminopiperidin-1-yl)-6-(2-fluoro-6-(trifluoromethyl)phenyl)quinazolin-4-yl)-2-fluorobenzonitrile]",≤ 30 nM
17,N#Cc1ccc(-c2nc(N3CCC(N)CC3)nc3c(F)cc(-c4ccccc4F)cc23)cc1F [Compound 81],30 to 300 nM
18,"Cc1cccc(F)c1-c1ccc2nc(NC[C@H]3CCNC3)nc(-c3ccc(C#N)c(F)c3)c2c1 [Compound 48, (S)-2-fluoro-4-(6-(2-fluoro-6-methylphenyl)-2-((pyrrolidin-3-ylmethyl)amino)quinazolin-4-yl)benzonitrile]",≤ 30 nM
19,"Cc1ccccc1-c1ccc2nc(N3CCC(N)CC3)nc(-c3ccc(C#N)c(F)c3)c2c1 [Compound 6, 4-(2-(4-aminopiperidin-1-yl)-6-(o-methylphenyl)quinazolin-4-yl)-2-fluorobenzonitrile]",30 to 300 nM
20,"N#Cc1ccc(-c2nc(N3CCC(N)CC3)nc3ccc(-c4c(Cl)cccc4Cl)cc23)cc1F [Compound 20, 4-(2-(4-aminopiperidin-1-yl)-6-(2,6-dichlorophenyl)quinazolin-4-yl)-2-fluorobenzonitrile]",≤ 30 nM
21,"N#Cc1ccc(-c2nc(N3CCC(N)CC3)nc3c(F)cc(-c4ccccc4C(F)(F)F)cc23)cc1F [Compound 80, 4-(2-(4-aminopiperidin-1-yl)-8-fluoro-6-(2-trifluoromethylphenyl)quinazolin-4-yl)-2-fluorobenzonitrile]",≤ 30 nM

# Continued, values first:
row,IC50,SMILES
1,30 to 300 nM,"N#Cc1ccc(-c2nc(NC[C@H]3CCNC3)nc3ccc(-c4cccc(F)c4F)cc23)cc1F [Compound 43, (S)-2-fluoro-4-(2-((pyrrolidin-3-ylmethyl)amino)-6-(2,3-difluorophenyl)quinazolin-4-yl)-2-fluorobenzonitrile]"
2,≤ 30 nM,"Cc1cccc(Cl)c1-c1ccc2nc(N3CCC(N)CC3)nc(-c3ccc(C#N)c(F)c3)c2c1 [Compound 21, 4-(2-(4-Aminopiperidin-1-yl)-6-(2-chloro-6-methylphenyl)quinazolin-4-yl)-2-fluorobenzonitrile]"
3,≤ 30 nM,"N#Cc1ccc(-c2nc(N3CCCC(N)CC3)nc3ccc(-c4c(F)cccc4C(F)(F)F)cc23)cc1F (centres unmarked) [Compound 72, 4-(2-(4-aminoazepan-1-yl)-6-(2-fluoro-6-(trifluoromethyl)phenyl)quinazolin-4-yl)-2-fluorobenzonitrile]"
4,≤ 30 nM,"COC1=CC=C(c2c(-c3ccc(C#N)c(F)c3)nc(N3CCC(N)CC3)n(C)c2=O)CC1F (centres unmarked) [CC90011, reference compound]"
5,30 to 300 nM,"Cc1cccc(-c2ccc3nc(N4CCC(N)CC4)nc(-c4ccc(C#N)c(F)c4)c3c2)c1 [Compound 8, 4-(2-(4-aminopiperidin-1-yl)-6-(m-methylphenyl)quinazolin-4-yl)-2-fluorobenzonitrile]"
6,30 to 300 nM,"N#Cc1ccc(-c2nc(NC[C@H]3CCNC3)nc3ccc(-c4ccccc4OC(F)(F)F)cc23)cc1F [Compound 39, (S)-2-fluoro-4-(2-((pyrrolidin-3-ylmethyl)amino)-6-(2-(trifluoromethoxy)phenyl)quinazolin-4-yl)benzonitrile]"
7,≤ 30 nM,"CNC1CCN(c2nc(-c3ccc(C#N)c(F)c3)c3cc(-c4c(F)cccc4C(F)(F)F)ccc3n2)CC1 [Compound 66, 2-Fluoro-4-(6-(2-fluoro-6-(trifluoromethyl)phenyl)-2-(4-(methylamino)piperidin-1-yl)quinazolin-4-yl)benzonitrile]"
8,≤ 30 nM,"N#Cc1ccc(-c2nc(NC[C@H]3CCNC3)nc3ccc(-c4cccc(F)c4C(F)(F)F)cc23)cc1F [Compound 57, (S)-4-(6-(3-fluoro-2-(trifluoromethylphenyl)-2-(pyrrolidin-3-ylmethyl)amino)quinazolin-4-yl)-2-fluorobenzonitrile]"
9,30 to 300 nM,"N#Cc1ccc(-c2nc(N3CC[C@H](N)[C@@H](F)C3)nc3ccc(-c4c(F)cccc4C(F)(F)F)cc23)cc1F [Compound 85, 4-(2-((3S,4S)-4-amino-3-fluoropiperidin-1-yl)-6-(2-fluoro-6-(trifluoromethyl)phenyl)quinazolin-4-yl)-2-fluorobenzonitrile]"
10,30 to 300 nM,"N#Cc1ccc(-c2nc(N3CC[C@@H](N)[C@H](F)C3)nc3ccc(-c4c(F)cccc4C(F)(F)F)cc23)cc1F [Compound 84, 4-(2-((3R,4R)-4-amino-3-fluoropiperidin-1-yl)-6-(2-fluoro-6-(trifluoromethyl)phenyl)quinazolin-4-yl)-2-fluorobenzonitrile]"
11,30 to 300 nM,"N#Cc1ccc(-c2nc(NC[C@H]3CCNC3)nc3ccc(-c4c(F)cccc4F)cc23)cc1F [Compound 50, (S)-4-(6-(2,6-difluorophenyl)-2-((pyrrolidin-3-ylmethyl)amino)quinazolin-4-yl)-2-fluorobenzonitrile]"
